The text below walks through data of article PMC5602112 (2017).

Molecules are shown by their SMILES.

Holding throughout (assay): single-round in vitro transcription termination
Details in all cases: apparent; co-transcriptional

Assay [1] concerns metI SAM-I riboswitch transcript, U114A:A138U (RNA, riboswitch) ACUUAGAAAAUUGAAAUCGAUAUUUCUUAUCGUGAGAGGUGGAGGGACUGGCCCUUAGAAACCUCAGCAACCGGCUUGUUUUGCAUUUGCAAAGCGCCAAGGUGCUAAAACCAGCAAGCGUUUUUUAUGCUUGGAUGAUAAGAAGAAGCGUUAAACCCCUUCUUCUUAUGAAGAAGGGGUUUUUAUUUUGAAAAGGGAAGGUGUCAGCUAUAUGUCACAGCACGUUGAAACGAAAUUAGCUCAAAUUGGGAA
Assay [2] relates to metI SAM-I riboswitch transcript, wild-type (RNA, riboswitch) ACUUAGAAAAUUGAAAUCGAUAUUUCUUAUCGUGAGAGGUGGAGGGACUGGCCCUUAGAAACCUCAGCAACCGGCUUGUUUUGCAUUUGCAAAGCGCCAAGGUGCUAAAUCCAGCAAGCGUUUUUUAUGCUUGGAAGAUAAGAAGAAGCGUUAAACCCCUUCUUCUUAUGAAGAAGGGGUUUUUAUUUUGAAAAGGGAAGGUGUCAGCUAUAUGUCACAGCACGUUGAAACGAAAUUAGCUCAAAUUGGGAA
Assay [3] relates to metI SAM-I riboswitch transcript, GUU (U114A:A137U:A138U) (RNA, riboswitch) ACUUAGAAAAUUGAAAUCGAUAUUUCUUAUCGUGAGAGGUGGAGGGACUGGCCCUUAGAAACCUCAGCAACCGGCUUGUUUUGCAUUUGCAAAGCGCCAAGGUGCUAAAACCAGCAAGCGUUUUUUAUGCUUGGUUGAUAAGAAGAAGCGUUAAACCCCUUCUUCUUAUGAAGAAGGGGUUUUUAUUUUGAAAAGGGAAGGUGUCAGCUAUAUGUCACAGCACGUUGAAACGAAAUUAGCUCAAAUUGGGAA

As for `C[S+](CC[C@H](N)C(=O)O)C[C@H]1O[C@@H](n2cnc3c(N)ncnc32)[C@H](O)[C@@H]1O` (stereo partly drawn), the results for the T50 in assay [1], in assay [2] and in assay [3] were ~ 673 nM, ~ 183 nM and ~ 1.3 µM, respectively.
